The record followed here is publication PMC5612938, “A multiple biomarker assay for quality assessment of botanical drugs using a versatile microfluidic chip” (Scientific Reports, 2017).

The test has as its target T1, ACE (from rabbit lung) (Oryctolagus cuniculus, UniProt P12822).
T1 construct: ACE (from rabbit lung); purchased Sigma-Aldrich; host or cells: rabbit lung
T1 sequence (P12822 34-1310): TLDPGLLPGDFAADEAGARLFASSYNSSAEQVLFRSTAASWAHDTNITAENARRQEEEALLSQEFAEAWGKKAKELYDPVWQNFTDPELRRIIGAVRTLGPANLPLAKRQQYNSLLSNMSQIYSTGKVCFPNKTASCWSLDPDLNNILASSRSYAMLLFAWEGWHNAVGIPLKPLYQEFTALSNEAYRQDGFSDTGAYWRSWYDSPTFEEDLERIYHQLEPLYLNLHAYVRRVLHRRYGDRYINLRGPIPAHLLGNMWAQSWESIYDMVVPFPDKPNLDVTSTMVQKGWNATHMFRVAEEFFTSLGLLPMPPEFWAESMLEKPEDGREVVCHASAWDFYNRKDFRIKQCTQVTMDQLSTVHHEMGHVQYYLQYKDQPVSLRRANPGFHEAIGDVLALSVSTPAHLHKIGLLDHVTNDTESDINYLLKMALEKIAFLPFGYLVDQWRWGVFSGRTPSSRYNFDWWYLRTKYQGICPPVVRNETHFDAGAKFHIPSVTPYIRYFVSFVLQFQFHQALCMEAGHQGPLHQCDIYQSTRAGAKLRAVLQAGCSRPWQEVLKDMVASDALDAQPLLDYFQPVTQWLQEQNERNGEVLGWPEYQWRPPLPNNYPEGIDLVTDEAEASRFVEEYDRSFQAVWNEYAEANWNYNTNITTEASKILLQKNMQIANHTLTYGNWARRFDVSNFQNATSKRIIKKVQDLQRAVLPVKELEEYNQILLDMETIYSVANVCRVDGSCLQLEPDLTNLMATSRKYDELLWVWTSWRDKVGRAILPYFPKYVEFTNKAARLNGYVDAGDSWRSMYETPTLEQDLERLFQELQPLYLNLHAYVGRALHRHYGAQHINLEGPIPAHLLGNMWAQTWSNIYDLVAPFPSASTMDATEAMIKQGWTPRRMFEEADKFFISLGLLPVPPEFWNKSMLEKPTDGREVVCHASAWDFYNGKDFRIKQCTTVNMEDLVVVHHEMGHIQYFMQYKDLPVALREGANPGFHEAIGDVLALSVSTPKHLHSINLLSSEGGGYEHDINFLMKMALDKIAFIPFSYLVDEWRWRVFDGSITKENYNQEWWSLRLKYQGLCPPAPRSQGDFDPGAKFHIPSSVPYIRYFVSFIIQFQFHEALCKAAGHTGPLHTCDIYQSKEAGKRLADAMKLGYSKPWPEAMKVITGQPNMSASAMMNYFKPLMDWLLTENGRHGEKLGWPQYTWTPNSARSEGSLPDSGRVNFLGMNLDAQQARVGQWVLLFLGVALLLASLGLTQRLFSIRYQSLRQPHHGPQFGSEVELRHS
The test is described as follows: on-chip ACE inhibition assay (FAPGG hydrolysis, absorbance decrease 340 nm). It is filed as biochemical. The method, then:
To enhance the performance of the on-chip assay, experimental parameters such as concentrations of enzymes and substrates, substrate reaction time, and incubation time of samples and enzymes were stepwise optimized.
The optimized protocol was first applied to assess the quality of 11 batches of QSYQ intermediates (Table 1). Enzyme inhibition (in percentages) was employed as an indicator of drug quality and calculated according to the following equations: thrombin inhibition (%) = [1 − (AQSYQ/Ablank)] × 100; ACE inhibition (%) = [1 − (ΔAQSYQ/ΔAblank)] × 100; where AQSYQ and Ablank were the absorbance of the test sample and the blank sample after the enzymatic reaction (the background value was subtracted), and ΔAQSYQ and ΔAblank were the absorbance decrease between 0 min and 30 min of the samples.
Thrombin (from human plasma), ACE (from rabbit lung), FAPGG and captopril were purchased from Sigma-Aldrich (St. Louis, USA). […] AEBSF-HCl was purchased from Selleckchem (Houston, USA). Trizma base (Tris) was obtained from Sangon Biotech (Shanghai, China) and dimethyl sulfoxide (DMSO) from J&K Scientific (Beijing, China). All other chemicals were purchased from Sinopharm Chemical (Shanghai, China) unless otherwise indicated. 0.2 M Phosphate buffer (PB, pH 6.5), and 50 mM Tris-HCl buffer (200 mM NaCl, pH 8.3) were prepared as assay buffers for thrombin and ACE, respectively.
MBs (10 mg/mL) were diluted 10 times in PB or Tris-HCl buffer, and 10 μL of the diluted MBs (1 mg/mL) were injected into one channel of the chip using a syringe infusion pump (Harvard Apparatus, USA) and retained by an external magnet. Then, 10 μL of thrombin or ACE solution was added and incubated with MBs for two hours at room temperature to form enzyme-MB complexes. The magnet was manually controlled to move MBs back and forth to enhance the ratio of reaction. Subsequently, MBs were washed twice in assay buffer and magnetically transferred to the other channel through the fluidic bridge, whose opening and closing was controlled by a pneumatic valve. Next, 10 μL of sample solutions of tested drug and 10 μL of enzymatic substrate were sequentially infused to the channel by the pump and incubated with the enzyme. When the enzymatic reaction was finished, the MBs were retained in the channel, and air was injected into the channel from the inlet using a syringe to push all the reacted solution to a 384-well plate. […] Moreover, after detection, the reaction channel was washed three times by assay buffer to remove unbound constituents. 20 μL of 80% aqueous methanol was then injected and incubated with MBs for one hour to dissociate the bound constituents. The resulting solutions of replicates were combined, evaporated by a centrifugal evaporator, reconstituted in 80% aqueous methanol, centrifuged at 10,000 rpm for 10 min, and analyzed by LC-MS for chemical identification.

As for `O=C(O)C(O)Cc1ccc(O)c(O)c1` (centres unmarked) [Danshensu], the “ACE inhibition (in words)” value (at tested concentrations) is listed as “showed ACE inhibitions”. Moreover, the inhibition rate (for ACE, maximum inhibition rate observed in the assay) came out at 64.2%.
